We go through one molecule from patent US11518981B2, “Methods of enhancing engraftment activity of hematopoietic stem cells” (CHILDREN'S HOSPITAL MEDICAL CENTER, priority 2017, dated 2022).

Common to all, as to assay type: cell-based, human
The test system of one data set is CD34^+ cells. Briefly: total CD34^+ cell number and viability (trypan blue). The note with it: ex vivo culture with/without p38i. The protocol:
Freshly isolated CD34^+ cells were used, wherever possible, and especially for 0 h controls. In some experiments cryopreserved CD34^+ cells were thawed for 4 hrs in IMDM containing cytokines, then washed and used for experiments. CD34^+ cells were transduced in X-VIVO 10™ (Lonza) medium supplemented with 2% human serum albumin (Baxter), recombinant human Flt-3 ligand (Flt3-L; 200 ng/mL), stem cell factor (SCF; 300 ng/mL), thrombopoietin (TPO; 100 ng/mL) (all cytokines obtained from PeproTech), and penicillin-streptomycin (ThermoFisher Scientific) on non-tissue culture treated plates coated with retronectin (4 μg/cm2, CH-296, Takara Bio Inc.). For LV transduction, CD34^+ cells (2-5×10^6/mL) were pre-stimulated for 4-8 hours and transduced twice with lentivirus vector (LV) maintaining the vector concentration between 5×10^7 to 1×10^8 infectious unit (IU) per mL of media volume, 12-14 hours apart. Cells were kept in culture for a total of either 18-24 hours, 36-42 hours or 72-96 hours. For RV transduction, human CD34^+ cells were pre-stimulated for ˜2 days (42-48 hours) hours at a cell density of 3×10^5 cells/ml. Retronectin coated tissue culture flasks or plates were preloaded at room temperature with GALV pseudotyped RV twice for one hour each. The vector supernatant was removed and the cells were loaded into the RV loaded retronectin coated flasks. […]

For another data set, the system named is CD34^+38^−90^+ HSCs. Briefly: cell cycle analysis (Ki-67 / Hoechst) of HSCs.
The next data set has as its system CD34^+38^−90^+ cells. Nature of the data set: Annexin V apoptosis assay in HSCs. Conditions: annexin V^+ CD34^+38^−90^+ cells. The text has this: PE-Cyanine 7 or APC-EFLUOR® 780, APC- or PE-conjugated antibodies directed to human CD34 (BD Biosciences 560710 or 555824), CD38 (eBiosciences, San Diego, Calif. 47-0389-42), CD90 (BioLegend 328120), CD45RA (eBiosciences 17-0458-42), CD49f (BD Biosciences 555736), CD45 (BD 55485 or Biolegend 304026), CD33 (eBiosciences 25-0338-42), CD19 (BD Biosciences 557791), or CD3 (BD Biosciences 555340). Cells (˜5×10^5−1×10^6) were used to label with antibodies as per manufacturer instructions with the appropriate isotype controls. For phospho-flow, primary antibodies phospho-p38 (Thr180/Tyr182; 4092S), phospho-p44/42 MAPK (ERK ½) (Thr202/Tyr204; 4094S), and phospho-JNK (Thr183-Tyr185 PE conjugate; 5755S) (all from Cell Signaling) were used for staining overnight followed by wash and secondary antibody stain including Goat anti-Rabbit IgG (H+L) or Goat anti-Rabbit IgG (H+L) or Pacific Blue (P-10994) antibody. Apoptosis assay was performed using PE Annexin V Apoptosis Detection Kit (BD Biosciences 559763) according to the manufacturer's instructions. Total ROS and mitochondrial specific ROS were detected using 10 μM CM-H2DCFDA (ThermoFisher Scientific C6827) and 5 μM MITOSOX™ Red (Red Mitochondrial Superoxide Indicator) (ThermoFisher Scientific M36008) respectively, following manufacturer's instructions.

A further data set concerns γH2AX. Briefly: DNA damage response (γH2AX, 53BP1) by immunofluorescence and flow cytometry. The protocol: For EdU incorporation assay, cells were incubated with 10 μM EdU throughout the culture period and the CLICK-IT® Plus EdU Pacific Blue Flow Cytometry Assay Kit (ThermoFisher Scientific C10636) was used for staining. […] Samples were run through a FACSCANTOTM, FORTESSATM, or LSR 2 flow cytometers (BD Biosciences), and the data was analyzed by […] software (BD). […] II cell sorter. FACS sorted CD34+38-90+ cells were fixed in 2% paraformaldehyde and permeabilized using 0.1% […] polyether alcohol, Sigma-Aldrich). […] Cells were counterstained and mounted with […]® antifade mounting medium with DAPI (H-1200 Vector Laboratories). Images were obtained using a Nikon 90i upright microscope.

Where [1] appears, read: before the first HSC division in vitro (24 h).

With `Cc1ccc(-n2nc(C(C)(C)C)cc2NC(=O)Nc2ccc(OCCN3CCOCC3)c3ccccc23)cc1` [p38i, 1-[5-tert-butyl-2-(4-methylphenyl)pyrazol-3-yl]-3-[4-(2-morpholin-4-ylethoxy)naphthalen-1-yl]urea], the “total number of CD34^+ cells, or viability in vitro” value in the data set with CD34^+ cells is given as “no effect”. In addition, the “percentage of cells in the different phases of cell cycle” value in the data set on CD34^+38^−90^+ HSCs (HSCs transduced when actively cycling (RV)) was “no difference”. In addition, the “effect on increasing the G0 population” value with CD34^+38^−90^+ HSCs (after HSCs progressed through cell cycle) is given as “lost”. Besides, in the data set on CD34^+38^−90^+ HSCs (setting [1]), the “proportion of HSCs in the G0 quiescent phase” value was “significantly increased” and the “proportion of HSCs in the S-G2M phase” value was “decreased”. Moreover, the “apoptosis in the HSC compartment” value in the data set with CD34^+38^−90^+ cells is reported as “no difference”. Besides, the “γH2AX levels in the transduced HSCs” value in the data set on γH2AX (72 h, RV transduced cycling HSCs) was “significantly reduced”. Moreover, the “percentage of γH2AX^+ cells” value in the data set on γH2AX (flow cytometry, 36-42 h and 72-96 h groups) is on record as “significantly reduced”. Further, in the data set with γH2AX (flow cytometry, 24 h), the “γH2AX MFI and number of γH2AX positive HSC” value is reported as “returned to levels seen in unmanipulated HSCs”.
